Measurements reported in patent US20030187038A1, “Fibrinogen-lowering agents” (priority 2000, published 2003).

Test system: plasma fibrinogen
Test: Fibrinogen-lowering effect in spontaneously hypercholesterolemia (SHC) rats
Assay type: in vivo, rat
Procedure: Candesartan cilexetil (TCV-116; 0.5% methylcellulose 100 cp suspension; 1 mg/kg (2 ml/kg)) were administered orally to 10-week-old SHC rats once a day for a 6-week period. 0.5% methylcellulose 100 cp suspensions were administered to the control group (vehicle-treated group) in a volume of 2 ml/kg. Fibrinogen concentrations in plasma were measured as follows. At the end of experiments, the blood was withdrawn from aorta abdominalis into 3.8% trisodium citrate solution (Citral, Yamanouchi Pharmaceutical Co.,Ltd., final concentration of 0.38%) and the plasma were prepared by centrifuging at 3000 rpm at room temperature for 20 minutes. The fibrinogen concentration was determined using fibrinogen test RD (Roche Diagnostics) and the clot timer (B-10, Sarstedt, Inc.) with reference to a standard rat fibrinogen (F-6755, Sigma).

Structure (SMILES): CCOc1nc2cccc(C(=O)OC(C)OC(=O)OC3CCCCC3)c2n1Cc1ccc(-c2ccccc2-c2nnn[nH]2)cc1 (centres unmarked) [TCV-116, 1-(cyclohexyloxycarbonyloxy)ethyl 2-ethoxy-1-[[2′-(1H-tetrazol-5-yl)biphenyl-4-yl]methyl]-benzimidazole-7-carboxylate]
- Fibrinogen level (SHC rat plasma, 1 mg/kg/day orally once a day for 6 weeks, Mean ± SE, n = 5, p < 0.01 vs vehicle): 354.0 ± 29.1 mg/dL
- Effect on plasma fibrinogen level versus control group (SHC rat, 1 mg/kg, comparison with vehicle-treated group): decreased the plasma fibrinogen level of SHC rat significantly
